In data set [1] the test system is Gli1-dependent luciferase expression in Shh-LIGHTII cells. Conditions: cited from earlier work.
For data set [2] the following is noted: cited from earlier work.
Data set [3] is described as follows: Stability towards acidic conditions. In kind it is physicochemical. The settings on record: pH approximately 1 (MeOH, 1 M HCl), 1H NMR compared with pure compound. The protocol: Finally, we studied the stability of all newly synthesized compounds towards acidic conditions. Therefore, they were exposed to a pH of approximately 1 (MeOH, 1 M HCl) for 24 h. After evaporation of all volatiles, ^1H NMR spectra were acquired and compared to the initially obtained spectra of the pure compounds. […] This experiment emphasizes the importance of the C-21 methyl group for the stability of exo-cyclopamine derivatives. All synthesized compounds, the number of steps required, and the respective overall yield starting from 3 or 14, as well as their biological activity and stability under acidic conditions are summarized in Table 1.

For a further data set, the system named is Shh-LIGHTII cells. As to the kind of experiment: Cytotoxicity observed in the reporter gene assay. The settings on record: in the concentration range tested (0.01 μM to 10 μM). In kind it is cell-based, mouse. The procedure: Given the negative test results of compounds 8 and 9 it becomes evident that the F-ring is necessary for bioactivity. The piperidine moiety provides a rather rigidly placed nitrogen atom. Nevertheless, a pyrrolidine as in compound 23 still provides the correct orientation of the nitrogen atom.
The interference of the exo-cyclopamine derivatives with the hedgehog signaling pathway was tested in an established reporter gene assay based on the inhibition of the target gene Gli1. […] The cell number was counted using a Neubauer-Zählkammer (Hemocytometer).
DIMETHOXYETHANEM (high glucose, sodium pyruvate, w/o glutamine) supplemented with 0.5% FBS, 4 mM L-glutamin and 50 mM HEPES buffer (4-(2-hydroxyethyl)-1-piperazine ethanesulfonic acid) (pH 7.4) was used as incubation medium. The measurement of reporter gene and constitutive Renilla luminescence was performed with the Dual Luciferase® reporter system according to the manufacturer’s instructions (Promega, Mannheim, Germany) using a GENios reader (TECAN, Crailsheim, Germany). […]
After 48 h of incubation cells were washed with 500 μL PBS (phosphate buffered saline, w Mg/Ca, Invitrogen) and afterwards incubated for 15 min with 100 μL 1 x passive lysis buffer on a shaker. […] At first, the blank of luminescence of a 96-well plate (flat bottom, white, Greiner bio-one) was recorded. […]
In general terms: Reporter assays use an easily measured gene product as a stand-in for the process of interest.

Data set [4] concerns Gli1-dependent luciferase expression in Shh-LIGHTII cells. Nature of the data set: Gli1-reporter gene assay (luciferase) in Shh-LIGHTII cells. The settings on record: for IC50: Mus musculus, Shh Light II, 48 h, read-out: Potency in Gli-assay (IC50); for Activity in Gli1-dependent luciferase assay (in words): concentration range 0.01 μM to 10 μM. Format: cell-based, mouse. The protocol:
Next, we examined all synthesized compounds for their ability to inhibit the Gli1-dependent luciferase expression in Shh-LIGHTII cells, a clonal mouse fibroblast cell line which stably incorporates a Gli-dependent firefly luciferase reporter and a constitutive Renilla luciferase reporter. The compounds were tested in a concentration range from 0.01 μM to 10 μM.
Data were obtained from three independent experiments and represent the mean ± standard deviation.
The interference of the exo-cyclopamine derivatives with the hedgehog signaling pathway was tested in an established reporter gene assay based on the inhibition of the target gene Gli1. Shh-LIGHTII cells (ATCC CRL-2795, LGC, Wesel, Germany) represent a clonal mouse fibroblast cell line (NIH 3T3), which stably incorporates a Gli-dependent firefly luciferase reporter and a constitutive Renilla luciferase reporter. They were grown in […] cell culture flasks at 37 °C in a humid atmosphere with 5% CO2. Cell growth medium […] (Dulbecco's Modified Eagle's Medium, high glucose, sodium pyruvate, w/o glutamine), ZeocinTM Selection Reagent and Geneticin® Selection Antibiotic (G418 sulfate) were obtained from Invitrogen. Additive L-glutamin and trypsin were obtained from PAA. VerseneTM chelating agent was obtained from Gibco, bovine fetal serum (FBS) from Sigma. The cell freeze medium contained 5% DMSO in complete growth medium. The cell number was counted using a Neubauer-Zählkammer (Hemocytometer).
DIMETHOXYETHANEM (high glucose, sodium pyruvate, w/o glutamine) supplemented with 0.5% FBS, 4 mM L-glutamin and 50 mM HEPES buffer (4-(2-hydroxyethyl)-1-piperazine ethanesulfonic acid) (pH 7.4) was used as incubation medium. The measurement of reporter gene and constitutive Renilla luminescence was performed with the Dual Luciferase® reporter system according to the manufacturer’s instructions (Promega, Mannheim, Germany) using a GENios reader (TECAN, Crailsheim, Germany).
Luciferase reporter assay.
For performing the assay, Shh-LIGHTII cells were grown to reach 80% confluence, washed twice with Versene, detached with 2 mL trypsin for not longer than 2 min and resuspended in 8 mL of growth medium. After centrifugation for 3 min, the supernatant was removed and the cell pellet dissolved in approximately 10 mL of growth medium. Finally, 20,000 to 100,000 cells per well were cultured in a 24-well plate for 48 h. For exposure to the derivatives the growth medium was removed and the cells were exposed to the compound in 500 μL/well incubation medium for 48 h. Stock solutions were prepared in EtOH and introduced in different concentrations into the incubation medium to reach a final solvent concentration of 0.05%. Due to the assay principle, Shh-LIGHTII cells had to be co-exposed to 100 nM of SAG (Smoothened agonist) for determining the inhibitory activity of the compounds. A SAG stock solution was prepared in EtOH and introduced into the medium. The final EtOH concentration – introduced by SAG and the test compound – was 0.1%. As a positive control a 100 nM SAG solution in incubation medium (0.1% EtOH) was used, negative controls were treated with EtOH […]
Performing the luciferase measurement.
After 48 h of incubation cells were washed with 500 μL PBS (phosphate buffered saline, w Mg/Ca, Invitrogen) and afterwards incubated for 15 min with 100 μL 1 x passive lysis buffer on a shaker. The lysed cells together with lysis solution were transferred into 1.5 mL reaction tubes, centrifuged for 1 min at 4 °C and kept on ice until further use. At first, the blank of luminescence of a 96-well plate (flat bottom, white, Greiner bio-one) was recorded. Then, 100 μL luciferase assay reagent and 10 μL cell supernatant were mixed per well and the luminescence of firefly luciferase was recorded. Addition of 100 μL Stop&Glo® reagent permitted the recording

The mark [5] stands for this setting: read-out: Potency in Gli-assay, previously synthesized and biologically evaluated.
[6] abbreviates: Shh-LIGHTII cells, co-exposed to 100 nM SAG, tested 0.01 μM to 10 μM, mean ± standard deviation of three independent experiments.

Entries after “also recorded” stand apart in the source; their conditions may differ. Where two headings read alike, the source gives them in different places.

With `CC1=C2C[C@H]3[C@@H](CC=C4C[C@@H](O)CC[C@@]43C)[C@@H]2CC[C@]12O[C@@H]1C[C@H](C)CN[C@H]1[C@H]2C` [Compound 1, cyclopamine], the IC50 in data set [1] (read-out: Potency (IC50) as inhibitor of hedgehog signaling, introductory statement, no assay details printed) was ~5 µM; in data set [1] (setting [5]), 5 µM. In addition, the “pH at which decomposition occurs” value in data set [2] (low metabolic stability (decomposition)) is reported as < 3. The “Stability towards acid (pH ~1, 24 h)” value in data set [2] (previously synthesized and evaluated compounds) is listed as “decomp”.

For the molecule `C=C1[C@@H]2C[C@H]3[C@@H](CC=C4C[C@@H](O)CC[C@@]43C)[C@@H]2CC[C@]12O[C@@H]1C[C@H](C)CN[C@H]1[C@H]2C` [Compound 2, exo-cyclopamine], in data set [1] (setting [5]), the IC50 was 0.5 µM.

`C=C1[C@@H]2C[C@H]3[C@@H](CC=C4C[C@@H](O)CC[C@@]43C)[C@@H]2CC[C@]12OC[C@@H](N)[C@H]2C` [Compound 9]: in data set [3], the “Stability towards acid (pH ~1, 24 h)” value is “remained unchanged; also recorded: stable”. Also, the Cytotoxicity result with Shh-LIGHTII cells is on record as “induced cytotoxicity”. Moreover, the IC50 in data set [4] (setting [6]) is > 10 µM. Moreover, the “Activity in Gli1-dependent luciferase assay (in words)” value (“Activity” for short) in data set [4] is “no activity”.

Take `C=C1CNC2C(C1)OC1(CCC3C(CC4C3CC=C3CC(O)CCC34C)C1=C)C2C` (stereo not drawn) [Compound 6, bis-exo-cyclopamine]: the IC50 in data set [4] (setting [6]) amounted to 0.2 ± 0.01 µM. In addition, the “Potency relative to parent compound (cyclopamine)” value in data set [4] (surpasses potency of parent compound) was 25 fold.

For the molecule `C=C1C2CC3C(CC=C4CC(O)CCC43C)C2CCC12OC1CC(C)CNC1C2C` (stereo not drawn) [Compound 5, 25-epi-exo-cyclopamine], the “Stability towards acid (pH ~1, 24 h)” value in data set [3] is “remained unchanged; also recorded: stable”. Further, the IC50 in data set [4] (setting [6]) was determined as 3.29 ± 0.31 µM.

Regarding `C=C1[C@@H]2C[C@H]3[C@@H](CC=C4C[C@@H](O)CC[C@@]43C)[C@@H]2CC[C@]12OC[C@@H](NCC)[C@H]2C` [Compound 8], the “Stability towards acid (pH ~1, 24 h)” value in data set [3] was “remained unchanged; also recorded: stable”. In addition, the Cytotoxicity entry in the data set with Shh-LIGHTII cells is reported as “induced cytotoxicity”. Besides, the IC50 in data set [4] (setting [6]) is > 10 µM. In data set [4], the “Activity” value is on record as “no activity”.

Take `C=C1CN[C@H]2C[C@@]3(CC[C@H]4[C@@H]5CC=C6C[C@@H](O)CC[C@]6(C)[C@H]5C[C@H]4C3=C)O[C@@H]2C1` [Compound 19, 20-demethyl-bis-exo-cyclopamine]: the “Stability towards acid (pH ~1, 24 h)” value in data set [3] was “showed decomposition; also recorded: decomp”. In addition, in data set [4], the IC50 was > 10 µM and the “Activity” value was “no activity; also recorded: completely inactive”.

As to `C=C1C2CC3C(CC=C4CC(O)CCC43C)C2CCC12CC1NCCC1O2` (stereo not drawn) [Compound 23, F-nor-20,25-bis-demethyl-exo-cyclopamine], the “Stability towards acid (pH ~1, 24 h)” value in data set [3] was “showed decomposition; also recorded: decomp”. In addition, the IC50 in data set [4] (setting [6]) worked out at 6.4 ± 0.9 µM.

Values taken from paper PMC3869244, “Cyclopamine analogs bearing exocyclic methylenes are highly potent and acid-stable inhibitors of hedgehog signaling” (Beilstein Journal of Organic Chemistry, 2013).
